# Data: patent US8729097B2, “Quinoline compounds as inhibitors of angiogenesis, human methionine aminopeptidase, and SIRT1, and methods of treating disorders” (The Johns Hopkins University, priority 2008, dated 2014)
# Where “and” joins values, the source holds several entries; their conditions need not be identical. Equal entries are not always repeated. Where two headings read alike, the source gives them in different places.
# Assays:
# [1] = test system: HUVEC; assay: HUVEC proliferation, [3H]-thymidine incorporation assay; assay type: cell-based, human; details: Homo sapiens, HUVEC
# Protocol: HCC1954 cells were grown in RPMI1640 containing 10% FBS. HUVEC were grown using the EGM-2 bullet kit (Cambrex) as per manufacturer's instructions. The cells were maintained in a humidified incubator adjusted to 5% CO2. For drug screening, 10 mM stock solutions of Johns Hopkins Drug Library were arrayed in 96-well plates and screened at a final concentration of 10 μM. The cell growth was determined using a [^3H]-thymidine incorporation assay. Cells (typically 5,000 cells/well) were seeded in 96-well plates containing 0.2 ml of growth media and allowed to adhere for 24 h. The cells were then treated with drugs for 24 h. Cells were pulsed with 1 μCi [^3H]-thymidine (MP Biomedicals, 6.7 Ci mmol^−1) for 8 h and harvested, upon trypsin treatment, onto glass fiber filters (Wallac, Turku, Finland), from which ^3H counts were determined using a Perkin Elmer MicroBeta plate reader.
# [2] = test system: HFF; assay: HFF proliferation (selectivity); assay type: cell-based; details: Homo sapiens, HFF; Table 2
# [3] = test system: Saccharomyces cerevisiae strain BY4743; assay: Yeast growth assay (wild type, map1Δ, map2Δ); assay type: cell-based; details: drug on paper disc
# Source text: Saccharomyces cerevisiae strain BY4743 (MATa/α his3Δ1/his3Δ1 leu2Δ0/leu2Δ0 lys2Δ0/LYS2) and its isogenic haploid derivatives for MetAP1 (map1Δ) and MetAP2 (map2Δ) deletion mutants were used for yeast growth assays. Drugs dissolved in DMSO were spotted onto sterile filter disks and dried before experiments. Exponentially growing yeast strains were mixed with top agar and plated on YPD (1% yeast extract/2% peptone/2% glucose) plates. The filter disks were then placed on the YPD plates containing yeasts and the incubation was continued for 48 h at 30° C.
# [4] = test system: N-terminal methionine processing of 14-3-3γ by hMetAP2; assay: N-terminal methionine processing of 14-3-3γ in HUVEC (Western blot); assay type: cell-based, human
# Protocol: 14-3-3γ is known as a substrate of eukaryotic MetAPs and the inhibition of either isotype of MetAPs was reported to increase the N-terminal methionyl form of the protein.
# Cells were lysed by adding 1 volume of 2× Laemmli buffer and were then boiled for 5 min. The samples were separated by SDS-PAGE and transferred to nitrocellulose membrane (Bio-Rad).
# [5] = test system: p53 and Rb pathways in HUVECs; assay: Western blot of p53, p21 and Rb in HUVEC; assay type: cell-based, human
# Protocol: (§1) Cells were lysed by adding 1 volume of 2× Laemmli buffer and were then boiled for 5 min. The samples were separated by SDS-PAGE and transferred to nitrocellulose membrane (Bio-Rad). Proteins were detected using primary antibodies for p53 (Santa Cruz), met-14-3-3γ (Novus), p21 (Santa Cruz), Rb (Santa Cruz), MetAP2 (Hu, X. et al (2006) Proc. Natl. Acad. Sci. U.S.A. 103, 18148-18153), SirT1 (Santa Cruz), acetyl-p53-K382 (Abeam), acetyl-tubulin (Sigma), histone-H3 (Santa Cruz), acetyl-H3 (Santa Cruz) and α-tubulin (TU-02, Santa Cruz) followed by the incubation with horseradish peroxidase (HRP)-conjugated anti-mouse or anti-rabbit antibodies (Santa Cruz) and enhanced chemiluminescence (ECL, Amersham).
# [6] = test system: p53 and p21 mRNA; assay: RT-PCR of p53 and p21 mRNA in HUVEC; assay type: cell-based, human; details: time-dependent
# Protocol: Total RNA from cells was isolated by Trizol reagent (Invitrogen) according to manufacturer's instruction. The RNA was then reverse transcribed using Superscript III (Invitrogen) and the standard PCR procedure was conducted using specific primer sets for p53 and p21 as following; 5′-[…]-3′ (forward) and 5′-[…]-3′ (reverse) for p53, 5′-[…]-3′ (forward) and 5′-[…]-3′ (reverse) for p21. RT-PCR analysis of GAPDH was used as an internal control for normalization.
# [7] = test system: HUVEC; assay: Senescence associated-β-galactosidase (SA-β-gal) staining in HUVEC; assay type: cell-based, human
# Protocol: Cells in 6-well plates were washed with PBS and fixed with 3% paraformaldehyde. After washing with PBS, the cells were incubated for 24 h at 37° C. (without CO2, protected from light) in freshly prepared SA-β-gal staining solution containing 1 mg/ml 5-bromo-4-chloro-3-indolyl β-D-galactopyranoside (X-gal), 5 mM potassium ferrocyanide, 5 mM potassium ferricyanide, 150 mM NaCl, 2 mM MgCl2 and 40 mM citric acid, titrated with NaH2PO4 to pH 6.0. SA-β-gal solution was then removed and the cells were washed with PBS. The stained cells were observed under a microscope.
# [8] = test system: acetylation of p53 (K382), α-tubulin and histone-H3; assay: Acetylation status of sirtuin substrates in HUVEC (Western blot); assay type: cell-based, human
# Protocol: as §1
# [9] = test system: angiogenesis in Matrigel plugs; assay: Matrigel plug assay in vivo; details: 60 mg/kg, i.p., nude mice, versus vehicle
# Protocol: Female athymic nude mice (NCR nu/nu, 4-6 weeks old) were purchased from NCI-Frederick, Md. and treated in accordance with Johns Hopkins Animal Care and Use Committee procedures. […] Mice were pre-treated for 3 days before 0.5 mL of Matrigel (BD Biosciences) containing 150 ng/ml VEGF and 200 ng/ml bFGF was implanted subcutaneously. Drug treatment was continued daily for an additional 10 days. Mice were sacrificed, and Matrigel plugs were harvested, fixed in neutral buffered formalin, and processed for histology using MAS-trichrome staining. A cross-section of the entire Matrigel plug was photographed at ×100. And erythrocyte-filled blood vessels were counted per field in a blinded manner.
# [10] = test system: HCC1954 human breast cancer cells; assay: Breast cancer xenografts; assay type: in vivo, mice
# Protocol: Approximately two million of HCC1954 cells were injected bilaterally and subcutaneously into female athymic nude mice (NCR nu/nu, n=5/group). After tumors became palpable, control mice were treated with vehicle (peanut oil with 5% DMSO). […] The tumor volume was measured using a vernier caliper and calculated according to the modified ellipsoid formula: Tumor volume (mm^3)=(short axis)^2×(long axis)×π/6
# After 30 days of treatment, the mice were sacrificed and the tumor tissues were extracted for immunohistochemical analysis and Western blots.
# [11] = molecular target: SirT2 (Homo sapiens, UniProt Q8IXJ6); assay: biochemical; details: SirT2 IC50, recombinant human sirtuin, fluorogenic substrate
# SirT2, sequence (Q8IXJ6 whole entry): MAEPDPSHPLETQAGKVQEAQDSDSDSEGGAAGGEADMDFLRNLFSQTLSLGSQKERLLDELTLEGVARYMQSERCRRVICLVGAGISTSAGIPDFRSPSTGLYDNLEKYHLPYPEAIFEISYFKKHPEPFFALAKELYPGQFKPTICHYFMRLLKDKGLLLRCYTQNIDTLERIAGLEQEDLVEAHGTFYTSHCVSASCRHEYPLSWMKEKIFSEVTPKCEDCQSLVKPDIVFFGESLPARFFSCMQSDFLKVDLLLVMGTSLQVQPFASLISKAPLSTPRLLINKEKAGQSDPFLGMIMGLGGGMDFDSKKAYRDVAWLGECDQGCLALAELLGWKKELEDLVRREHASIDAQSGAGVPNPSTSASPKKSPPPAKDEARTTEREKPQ
# Protocol: (§2) The sirtuin fluorometric assay kits were obtained from Biomol. The assay was conducted according to the manufacturer's instruction. One unit of SirT1 was used per reaction. For SirT2 and SirT3, 2 units were used for the assay.
# [12] = molecular target: SirT3 (Homo sapiens, UniProt Q9NTG7); assay: biochemical
# SirT3, sequence (Q9NTG7 whole entry): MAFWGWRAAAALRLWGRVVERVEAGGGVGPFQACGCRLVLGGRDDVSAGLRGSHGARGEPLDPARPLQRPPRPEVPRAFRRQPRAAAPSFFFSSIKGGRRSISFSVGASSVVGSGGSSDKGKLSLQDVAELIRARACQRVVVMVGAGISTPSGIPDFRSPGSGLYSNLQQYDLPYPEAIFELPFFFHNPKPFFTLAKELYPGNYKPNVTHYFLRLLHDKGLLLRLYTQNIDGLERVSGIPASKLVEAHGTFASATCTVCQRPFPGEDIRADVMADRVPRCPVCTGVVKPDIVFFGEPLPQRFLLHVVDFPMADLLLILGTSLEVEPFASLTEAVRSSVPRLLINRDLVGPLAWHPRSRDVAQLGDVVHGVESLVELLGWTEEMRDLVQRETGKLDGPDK
# Protocol: as §2
compound,measurement,setting,value
"O=[N+]([O-])c1ccc(O)c2ncccc12 [Entry 1c, nitroxoline]",IC50,[1]; read-out: Selectivity HUVEC IC50,1.98 µM
same,IC50,"[1]; Table 4, read-out: HUVEC IC50",1.98 µM
same,IC50,[2],13.6 µM
same,growth of MetAP-1 deletion mutant (map1Δ),[3]; map1Δ,significantly inhibited
same,growth of MetAP-2 deletion mutant,[3]; map2Δ,did not affect the growth
same,growth of wild-type yeast,[3]; wild type,did not inhibit the yeast growth
same,N-terminal methioninylated 14-3-3γ level,[4]; 24 h,dose-dependently increased
same,inhibition at 5 µM,"[4]; Homo sapiens, read-out: inhibition of the processing of 14-3-3γ compared with hMetAP2 siRNA",~80%
same,p53 protein level,[5],upregulation
same,Rb hyperphosphorylation,[5]; 8% SDS-PAGE,inhibited its hyperphosphorylation
same,total amount of Rb protein,[5]; 12% SDS-PAGE,increased the total amount of Rb protein
same,p21 protein level on longer incubation,[5]; longer incubation,upregulated
same,p53 protein level on prolonged exposure,[5]; up to 72 h,sustained increase in p53 protein level
same,expression of p21,[5]; within 24 h of treatment,no effect
same,p21 mRNA level,[6],increased
same,p53 mRNA level,[6],decreased
same,premature senescence in HUVEC,"[7]; 72 h, valproic acid 0.1 mM, TNP-470 20 nM",induced premature senescence
same,reversibility of senescence,"[7]; 72 h treatment, then fresh media for an additional 48 h",remained senescent
same,acetylation of p53-K382,[8]; HUVEC treated for 20 h,increased the acetylation of p53-K382
same,acetylation status of tubulin or histone-H3,"[8]; HUVEC, 6 h or 20 h",did not change the acetylation status
same,acetylation of tubulin and histone-H3 in the presence of TSA,"[8]; HUVEC, with TSA (200 nM), 24 h, nitroxoline 20 μM",significantly increased the acetylation of both tubulin and histone-H3
same,density of new blood vessels in Matrigel plugs,[9],dramatic reduction in the density of new blood vessels
same,level of p53 protein in tumor tissues,[10]; Western blot of tumor tissues,increased
same,p53 acetylation in tumor tissues,[10]; Western blot of tumor tissues,significantly induced p53 acetylation
same,tumor-associated angiogenesis,[10]; anti-CD31 immunohistochemical staining,strongly inhibited
same,inhibition of growth of HCC1954 xenografts,"[10]; day 30, 60 mg/kg i.p., nude mice",55%
same,IC50,[11],43 µM and 35 µM
same,IC50,[12],> 50 µM
